Experiments:
[1] = system: C6 (Central Nervous System); assay: In vitro tumor cell growth inhibition, MTS dye conversion assay, C6; format: cell-based, Human; settings: Rattus norvegicus, 4-6 days, read-out: IC50 (concentration associated with 50% inhibition of cell growth)
Description: (§1) The ability of the compounds of formula I to inhibit tumor cell growth was determined using the assay described in Cory A. H et al., Cancer Commun. 3(7):207-12, 1991.
(§2) Briefly, the assay is a […] method for determining the number of viable cells in proliferation or chemosensitivity assays.
(§3) Human tumor cell lines were propagated under sterile conditions in RPMI 1640 (CellGro) with […] fetal bovine serum (Gibco BRL), 2 mM L-glutamine, and sodium bicarbonate (complete medium). The cells were then incubated at 37° C. in HEPA-filtered Sterilcult CO2 tissue culture incubators (Forma) with 5% CO2 and 95% hymidity. Each cell line was subcultured weekly or biweekly. […]
(§4) The test compounds (100 μL), dissolved in DMSO (Sigma, cell culture grade) and diluted with complete medium, were added to 96-well plates containing attached cellular monolayers (5000 cells/well in 100 μL). […] Antiproliferative effects were assessed with the 3-(4,5-dimethylthiazol-2-yl)-5-(3-carboxymethoxyphenyl)-2-(4-sulfophenyl)-2H-tetrazolium, inner salt (MTS dye) conversion assay. […] The absorbance of formazan in each monolayer was measured at 490 nm on a Coulter microplate reader at 2 and 4 hours after the addition of the MTS solution.
(§5) Growth inhibition data are expressed as a percentage of absorbance detected in control wells and is proportional to the number of viable cells in the culture. […]

[2] = system: SW-620 colon cancer cell line; assay: In vitro tumor cell growth inhibition, MTS dye conversion assay, SW-620; format: cell-based, Human; settings: 4-6 days
Description: as §1, §2, §3, §4, §5

[3] = system: OVCAR-5 ovarian cancer cell line; assay: In vitro tumor cell growth inhibition, MTS dye conversion assay, OVCAR-5; format: cell-based, Human; settings: Ovary, 4-6 days
Description: as §1, §2, §3, §4, §5

MCF7 (Breast) = assay: In vitro tumor cell growth inhibition, MTS dye conversion assay, MCF7; format: cell-based; settings: Homo sapiens, 4-6 days, read-out: IC50 (concentration associated with 50% inhibition of cell growth)
Description: as §1, §2, §3, §4, §5

EKVX (Lung) = assay: In vitro tumor cell growth inhibition, MTS dye conversion assay, EKVX; format: cell-based; settings: Homo sapiens, 4-6 days, read-out: IC50 (concentration associated with 50% inhibition of cell growth)
Description: as §1, §2, §3, §4, §5

CCRF-CEM (Leukemia) = assay: In vitro tumor cell growth inhibition, MTS dye conversion assay, CCRF-CEM; format: cell-based; settings: Homo sapiens, 4-6 days, read-out: IC50 (concentration associated with 50% inhibition of cell growth)
Description: as §1, §2, §3, §4, §5

[4] = Homo sapiens, read-out: IC50 (concentration associated with 50% inhibition of cell growth)

`Cc1cc(NC(=O)C(C#N)C(=O)C2CC2)ccc1C(F)(F)F` (centres unmarked) [laflunimus, N-(3-Methyl-4trifluoromethylphenyl) 2-Cyano-2-(cyclopropylcarbonyl)acetamide] showed an IC50 [1] of 12 µM, an IC50 [2, 4] of 6 µM and an IC50 [3, 4] of 13 µM. For the same molecule, the IC50 (MCF7 (Breast)) was 13 µM, the IC50 (EKVX (Lung)) was 14 µM and the IC50 (CCRF-CEM (Leukemia)) was 28 µM.

With `Cc1oncc1C(=O)Nc1ccc(C(F)(F)F)cc1` [lefunomide, 5-methylisoxazole-4-carboxylic acid-(4-trifluromethyl)-anilide, reference compound] the “IC50 (concentration associated with 50% inhibition of cell growth)” value [2] was “did not achieve IC50 effects” and the “IC50 (concentration associated with 50% inhibition of cell growth)” value [3] was “did not achieve IC50 effects”.

From US6566395B1, “Methods of treating proliferative disorders” (BioMedicines, Inc., priority 1999, dated 2003)
